For data set [1] the following is noted: cited from earlier work.
For data set [2], the system named is seizures. Particulars: several rodent models of epilepsy; cited from earlier work.
Data set [3] deals with simple and complex partial seizures and secondarily generalized seizures. Particulars: adjunctive therapy or monotherapy; human epilepsy; cited from earlier work.
Data set [4] deals with seizures. Particulars: animal model of kindled epilepsy; cited from earlier work.
In data set [5] the test system is paresthesias. Nature of the data set: Anecdotal case studies: potassium supplementation in patients with persistent paresthesias. The class given is in vivo, human.
For data set [6] the following is noted: infusion into an epidural catheter; cited from earlier work.
A further data set concerns paresthesia. Particulars: intravenous potassium chloride in combination with spirocolactone; patient with hypokalemia and painful leg paresthesia; cited from earlier work.
Data set [7] relates to paresthesias. As to the kind of experiment: Single-patient case reports: potassium chloride given to patients with paresthesias while taking topiramate. The class given is in vivo, human. Particulars: potassium chloride 20 mEq/day. The procedure: The patient was a person who had cluster headaches. The patient was taking topiramate at 150 mg/day. They complained of paresthesias. The patient was given potassium chloride at 20 mEq/day.
The patient was a person who had migraine headaches and who was taking topiramate at 150 mg/day. They complained of paresthesias and was given potassium chloride at 20 mEq/day.
The patient was a person who had migraine headaches and was taking topiramate at 200 mg/day. They complained of paresthesias and was given potassium chloride at 20 mEq/day.
The patient was a person who had migraine headaches and was taking topiramate at 125 mg/day. They complained of paresthesias and was given potassium chloride at 20 mEq/day.
The patient was a person who had migraine headaches and was taking topiramate at 50 mg/day. They complained of paresthesias and was given potassium chloride at 20 mEq/day.

The values that follow come from US20030092636A1, “Treatment and prevention of paresthesia comprising co-therapy with anticonvulsant derivatives and potassium” (priority 2001, published 2003).

The structures appear in SMILES notation. Where two headings read alike, the source gives them in different places.

For the compound `CC1(C)O[C@@H]2[C@@H](CO[C@@]3(COS(N)(=O)=O)OC(C)(C)O[C@@H]23)O1` [topiramate, 2,3:4,5-bis-O-(1-methylethylidene)-β-D-fructopyranose sulfamate], in data set [1] (patients treated for epilepsy, migraine headaches, bipolar disorder), the “adverse event or side effect” value is reported as “paresthesia”. The “severity of the paresthesia” value in data set [1] (patients treated with topiramate) was “mild to severe”. The seizure block result in the data set with seizures [2] and with seizures [4] was “effectively block seizures” each time. In data set [3], the “efficacy in treating seizures” value is recorded as “effective as adjunctive therapy or as monotherapy”.

Regarding `[Cl-].[K+]` [potassium chloride], in the data set on paresthesias [5] (patients complaining of persistent paresthesias, 20-40 meq/day potassium chloride), the “effect on persistent paresthesias” value is recorded as “control of the paresthesias”. Besides, in the data set on paresthesias [5] (potassium chloride and food (orange juice and bananas) supplementation), the “effect on paresthesias and severity” value was “effective in decreasing paresthesias and its severity”. The “effect of inadvertent epidural infusion” value in data set [6] is given as “paresis (slight paralysis or weakness of a limb) and/or painful paraesthesias in the patient's extremities”. Besides, the outcome of treatment with paresthesia was “stabilization of serum potassium, disappearance of paresthesia and normalization of muscle function and ECG”. Besides, the paresthesias outcome is recorded as “paresthesias had abated” with paresthesias [7] (Example 3: person, cluster headaches, topiramate 150 mg/day, within 9 days); “paresthesias had abated” with paresthesias [7] (Example 4: person, migraine, topiramate 150 mg/day, after about one month); “paresthesias had abated” in the data set on paresthesias [7] (Example 5: person, migraine, topiramate 200 mg/day, after about two months); “paresthesias had abated” with paresthesias [7] (Example 6: person, migraine, topiramate 125 mg/day, after about one month); “paresthesias had abated” in the data set with paresthesias [7] (Example 7: person, migraine, topiramate 50 mg/day, after one month).
